Experiment [1] addresses T1, SMARCA2-HiBiT HeLa cells (protein which is expressed from the SMARCA2 gene) (Homo sapiens, UniProt P51531).
T1 construct: protein which is expressed from the SMARCA2 and SMARCA4 genes; host or cells: HeLa (SMARCA2-HiBiT engineered line)
The experiment can be described thus: SMARCA2 degradation assay (HiBiT-fusion HeLa cell line, 24 h, luminescence). The experiment is classed as cell-based. Put shortly: (§1)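 In this 24-hour cellular degradation readout, HiBiT-tagged HeLa lines received compound at up to typically 10 μM down to 300 pM in 10 points. After lysis with LgBiT and substrate, luminescence signals were used to build dose-response curves for DC50.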
(In general: With HiBiT, luminescence reflects the tagged protein that the partner subunit can reach.)

The target in experiment [2] is T2, SMARCA4-HiBiT HeLa cells (protein which is expressed from the SMARCA4 gene) (Homo sapiens, UniProt P51532).
T2 construct: protein which is expressed from the SMARCA2 and SMARCA4 genes; host or cells: HeLa (SMARCA4-HiBiT engineered line)
T2 sequence (P51532 whole entry): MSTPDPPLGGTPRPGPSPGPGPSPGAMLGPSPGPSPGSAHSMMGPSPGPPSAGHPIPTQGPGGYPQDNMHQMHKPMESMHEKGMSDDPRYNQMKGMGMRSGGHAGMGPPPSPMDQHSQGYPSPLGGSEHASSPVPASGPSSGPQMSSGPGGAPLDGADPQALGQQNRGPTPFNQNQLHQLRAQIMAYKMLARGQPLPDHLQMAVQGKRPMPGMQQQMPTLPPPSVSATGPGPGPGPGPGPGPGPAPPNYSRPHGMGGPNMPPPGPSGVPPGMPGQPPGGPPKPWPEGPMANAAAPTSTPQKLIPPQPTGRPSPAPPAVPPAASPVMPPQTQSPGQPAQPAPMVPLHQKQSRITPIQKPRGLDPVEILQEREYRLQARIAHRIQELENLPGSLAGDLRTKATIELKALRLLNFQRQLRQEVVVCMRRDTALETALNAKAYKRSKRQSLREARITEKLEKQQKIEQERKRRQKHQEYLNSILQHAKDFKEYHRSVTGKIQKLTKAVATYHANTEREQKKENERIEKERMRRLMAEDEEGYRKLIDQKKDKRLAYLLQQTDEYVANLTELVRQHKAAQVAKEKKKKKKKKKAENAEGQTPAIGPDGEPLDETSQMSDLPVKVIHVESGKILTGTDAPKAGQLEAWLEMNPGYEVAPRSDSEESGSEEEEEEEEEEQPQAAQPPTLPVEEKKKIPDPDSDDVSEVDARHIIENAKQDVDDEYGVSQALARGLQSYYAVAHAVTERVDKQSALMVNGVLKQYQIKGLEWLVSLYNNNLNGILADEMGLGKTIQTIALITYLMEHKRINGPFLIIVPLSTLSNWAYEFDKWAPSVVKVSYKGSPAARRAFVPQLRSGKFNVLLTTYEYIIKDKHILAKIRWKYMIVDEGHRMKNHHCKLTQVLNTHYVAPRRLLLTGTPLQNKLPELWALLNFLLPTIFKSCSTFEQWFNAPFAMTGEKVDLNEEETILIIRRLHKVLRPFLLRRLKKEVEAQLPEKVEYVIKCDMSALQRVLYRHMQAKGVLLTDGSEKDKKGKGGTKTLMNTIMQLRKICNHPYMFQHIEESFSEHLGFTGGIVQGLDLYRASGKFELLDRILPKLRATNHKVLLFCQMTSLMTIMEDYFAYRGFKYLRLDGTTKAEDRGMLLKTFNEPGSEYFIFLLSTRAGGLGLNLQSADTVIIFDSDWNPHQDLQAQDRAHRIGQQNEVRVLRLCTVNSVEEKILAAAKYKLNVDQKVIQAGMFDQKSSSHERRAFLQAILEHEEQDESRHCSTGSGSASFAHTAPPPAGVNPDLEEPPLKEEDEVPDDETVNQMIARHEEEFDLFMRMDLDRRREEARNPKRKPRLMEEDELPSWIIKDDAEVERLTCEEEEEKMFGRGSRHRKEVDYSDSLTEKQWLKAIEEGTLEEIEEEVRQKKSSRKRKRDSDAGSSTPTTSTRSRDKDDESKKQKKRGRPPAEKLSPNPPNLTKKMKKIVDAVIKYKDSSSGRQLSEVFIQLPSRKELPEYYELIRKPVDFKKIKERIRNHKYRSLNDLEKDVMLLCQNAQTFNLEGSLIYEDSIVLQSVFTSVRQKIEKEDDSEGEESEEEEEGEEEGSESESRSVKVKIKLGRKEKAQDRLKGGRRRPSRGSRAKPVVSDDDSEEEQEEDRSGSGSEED
In words: SMARCA4 degradation assay (HiBiT-fusion HeLa cell line, 24 h, luminescence). The experiment is classed as cell-based. Put shortly: as §1

T1 sequence (P51531 whole entry): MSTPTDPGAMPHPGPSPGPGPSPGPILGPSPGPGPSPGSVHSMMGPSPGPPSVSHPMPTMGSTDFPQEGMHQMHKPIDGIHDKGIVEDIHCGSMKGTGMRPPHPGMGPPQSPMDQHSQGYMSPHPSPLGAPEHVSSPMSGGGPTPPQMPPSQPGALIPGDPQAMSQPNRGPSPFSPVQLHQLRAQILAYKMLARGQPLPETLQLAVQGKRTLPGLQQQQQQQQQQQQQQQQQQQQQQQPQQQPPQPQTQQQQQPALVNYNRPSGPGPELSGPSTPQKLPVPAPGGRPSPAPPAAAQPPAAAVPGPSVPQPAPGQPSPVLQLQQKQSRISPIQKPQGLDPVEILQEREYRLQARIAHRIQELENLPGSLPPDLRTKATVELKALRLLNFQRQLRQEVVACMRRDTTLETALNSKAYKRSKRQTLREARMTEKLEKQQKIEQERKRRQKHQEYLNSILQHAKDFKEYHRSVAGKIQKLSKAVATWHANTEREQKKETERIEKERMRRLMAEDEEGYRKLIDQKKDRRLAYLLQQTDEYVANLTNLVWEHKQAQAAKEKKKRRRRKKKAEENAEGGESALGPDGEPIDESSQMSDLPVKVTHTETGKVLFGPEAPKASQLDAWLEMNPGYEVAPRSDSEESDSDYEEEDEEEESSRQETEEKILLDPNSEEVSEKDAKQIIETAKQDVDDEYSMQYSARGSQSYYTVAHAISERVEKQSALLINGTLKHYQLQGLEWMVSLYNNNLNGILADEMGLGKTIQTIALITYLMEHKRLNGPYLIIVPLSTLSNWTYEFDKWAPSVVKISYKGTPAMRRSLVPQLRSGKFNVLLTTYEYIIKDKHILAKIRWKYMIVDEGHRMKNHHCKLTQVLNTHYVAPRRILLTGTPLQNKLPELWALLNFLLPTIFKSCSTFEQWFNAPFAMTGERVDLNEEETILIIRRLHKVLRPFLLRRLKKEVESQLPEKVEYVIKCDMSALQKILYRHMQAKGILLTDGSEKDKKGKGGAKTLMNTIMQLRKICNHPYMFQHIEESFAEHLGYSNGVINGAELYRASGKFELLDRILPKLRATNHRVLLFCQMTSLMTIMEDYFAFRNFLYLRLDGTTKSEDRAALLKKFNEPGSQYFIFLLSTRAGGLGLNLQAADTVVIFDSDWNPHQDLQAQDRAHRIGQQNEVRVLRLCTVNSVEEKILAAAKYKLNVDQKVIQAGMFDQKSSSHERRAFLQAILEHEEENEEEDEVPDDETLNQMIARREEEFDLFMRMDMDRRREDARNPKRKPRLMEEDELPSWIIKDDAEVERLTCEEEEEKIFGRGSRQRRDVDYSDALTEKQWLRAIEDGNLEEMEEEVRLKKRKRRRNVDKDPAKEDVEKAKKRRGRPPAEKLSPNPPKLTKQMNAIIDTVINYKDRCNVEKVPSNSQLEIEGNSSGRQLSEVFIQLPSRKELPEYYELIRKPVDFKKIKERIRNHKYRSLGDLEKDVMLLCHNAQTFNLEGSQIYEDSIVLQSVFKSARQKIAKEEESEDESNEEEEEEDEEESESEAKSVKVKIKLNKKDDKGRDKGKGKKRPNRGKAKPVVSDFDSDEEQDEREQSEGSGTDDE

Consider `CN(C)CC#Cc1cc(N2C3CCC2CN(c2cc(-c4ccccc4O)nnc2N)CC3)ccn1` (stereo not shown) [Compound P-382, 0-[6-amino-5-(9-{2-[3-(dimethylamino)-1-propynyl]-4-pyridyl}-3,9-diazabicyclo[4.2.1]non-3-y1)-3-pyridazinyl]phenol], for which the 50% degradation concentration (DC50) in experiment [1] and in experiment [2] was less than 50 nM in each case. The “SMARCA2 % Degradation @ 1 μM” value in experiment [1] (1 μM) is “+++ (+++=>70%)”. In addition, the inhibition (usually the share of the control response that was lost under treatment) at 1 µM in experiment [2] (1 μM) was more than 70%.
Take `Nc1nnc(-c2ccccc2O)cc1N1CCCN(c2ccnc(C#CCNc3ncco3)n2)CC1` [Compound P-15, 2-(6-amino-5-(4-(2-(3-(oxazol-2-ylamino)prop-1-yn-1-yl)pyrimidin-4-yl)-1,4-diazepan-1-yl)pyridazin-3-yl)phenol]: the DC50 in experiment [1] and in experiment [2] was 500 to 5000 nM in each case. In addition, in experiment [1] (@ 1 μM), the “SMARCA2 % Degradation @ 1 μM” value is recorded as “++ (++=30-70%)”. In addition, the inhibition at 1 µM in experiment [2] (@ 1 μM) is less than 30%.
With `C[C@@H]1CCN(c2cc(-c3ccccc3O)nnc2N)CCN1c1nc(C#CCO)ncc1F` [Compound P-207, o-(5-{(R)-4-[5-fluoro-2-(3-hydroxy-1-propynyl)-4-pyrimidinyl]-5-methyl-1,4-diazepan-1-yl}-6-amino-3-pyridazinyl)phenol], the DC50 in experiment [1] and in experiment [2] was 500 to 5000 nM in each case. Also, in experiment [1] (@ 1 μM), the “SMARCA2 % Degradation @ 1 μM” value is “++ (++=30-70%)”. This molecule also showed an inhibition at 1 µM in experiment [2] (@ 1 μM) of less than 30%.
`Nc1nnc(-c2ccccc2O)cc1N1CC2CC1CN(c1ccnc(C#CCNC(=O)c3cc4ncccn4n3)n1)C2` (stereo not shown) [Compound P-17, N-(3-(4-(6-(3-amino-6-(2-hydroxyphenyl)pyridazin-4-yl)-3,6-diazabicyclo[3.2.1]octan-3-yl)pyrimidin-2-yl)prop-2-yn-1-yl)pyrazolo[1,5-a]pyrimidine-2-carboxamide]: the DC50 in experiment [1] and in experiment [2] was 500 to 5000 nM throughout. The “SMARCA2 % Degradation @ 1 μM” value in experiment [1] (@ 1 μM) is “++ (++=30-70%)”. For the same molecule, in experiment [2] (@ 1 μM), the inhibition at 1 µM lay within 30 to 70%.
As to `C[C@@H]1CCN(c2cc(-c3ccccc3O)nnc2N)CCN1c1ccc(C#N)c(C#CCN2CC3CC2C3)n1` [Compound P-393, 6-{(R)-4-[3-amino-6-(o-hydroxyphenyl)-4-pyridazinyl]-7-methyl-1,4-diazepan-1-yl}-2-{3-(2-azabicyclo[2.1.1]hex-2-yl)-1-propynyl} nicotinonitrile], the DC50 in experiment [1] and in experiment [2] was less than 50 nM in each case. Moreover, the “SMARCA2 % Degradation @ 1 μM” value in experiment [1] (1 μM) is “+++ (+++=>70%)”. Also, the inhibition at 1 µM in experiment [2] (1 μM) was 30 to 70%.
For the molecule `CC1CC(C)N1CC#Cc1nccc(N2CCN(c3cc(-c4ccccc4O)nnc3N)CC[C@H]2C)n1` (stereo partly drawn) [Compound P-249, o-{5-[(R)-4-{2-[3-(2,4-dimethyl-1-azetidinyl)-1-propynyl]-4-pyrimidinyl}-5-methyl-1,4-diazepan-1-yl]-6-amino-3-pyridaziny1} phenol], the DC50 in experiment [1] and in experiment [2] was less than 50 nM throughout. Also, the “SMARCA2 % Degradation @ 1 μM” value in experiment [1] (@ 1 μM) was “++ (++=30-70%)”. The inhibition at 1 µM in experiment [2] (@ 1 μM) was less than 30%.
In the case of `Cc1c(C(=O)NC/C=C/c2nccc(N3CCCN(c4cc(-c5ccccc5O)nnc4N)CC3)n2)nn(C)c1C` [Compound P-111, (E)-N-(3-(4-(4-(3-amino-6-(2-hydroxyphenyl)pyridazin-4-yl)-1,4-diazepan-1-yl)pyrimidin-2-yl)allyl)-1,4,5-trimethyl-1H-pyrazole-3-carboxamide], the DC50 in experiment [1] and in experiment [2] was 50 to 500 nM in each case. The “SMARCA2 % Degradation @ 1 μM” value in experiment [1] (@ 1 μM) is reported as “+++ (+++=>70%)”. This molecule showed an inhibition at 1 µM in experiment [2] (@ 1 μM) of 30 to 70%.
In the case of `CC(C#Cc1nccc(N2CCN(c3cc(-c4ccccc4O)nnc3N)CC[C@H]2C)n1)N(C)C` (stereo partly drawn) [Compound P-254, o-{5-[(R)-4-{2-[3-(dimethylamino)-1-butynyl]-4-pyrimidinyl}-5-methyl-1,4-diazepan-1-yl]-6-amino-3-pyridazinyl}phenol], the DC50 in experiment [1] and in experiment [2] was less than 50 nM in each case. Further, the “SMARCA2 % Degradation @ 1 μM” value in experiment [1] (@ 1 μM) is listed as “++ (++=30-70%)”. In experiment [2] (@ 1 μM), this molecule gave an inhibition at 1 µM of 30 to 70%.
Regarding `C[C@H]1CN(c2ccnc(C#CCNc3ccn(C)n3)n2)CCN1c1cc(-c2ccccc2O)nnc1N` [Compound P-328, 0-{5-[(S)-2-methyl-4-{2-[3-(1-methyl-3-pyrazolylamino)-1-propynyl]-4-pyrimidinyl}-1-piperazinyl]-6-amino-3-pyridazinyl}phenol], the DC50 in experiment [1] and in experiment [2] was 50 to 500 nM throughout. Besides, the “SMARCA2 % Degradation @ 1 μM” value in experiment [1] (@ 1 μM) is given as “++ (++=30-70%)”. The molecule also came in with an inhibition at 1 µM in experiment [2] (@ 1 μM) of 30 to 70%.
With `Nc1nnc(-c2ccccc2O)cc1N1CCN(c2ccnc(C#CCNC(=O)c3ccn(CC(F)(F)F)n3)n2)CC1` [Compound P-9, N-[3-(4-{4-[3-amino-6-(2-hydroxyphenyl)pyridazin-4-yl]piperazin-1-yl}pyrimidin-2-yl)prop-2-yn-1-yl]-1-(2,2,2-trifluoroethyl)-1H-pyrazole-3-carboxamidc], the DC50 – broadly, the concentration at which degradation of the target reaches its halfway point – in experiment [1] was 50 to 500 nM; in experiment [2], less than 50 nM. The “SMARCA2 % Degradation @ 1 μM” value in experiment [1] (@ 1 μM) was “++ (++=30-70%)”. The same molecule displayed an inhibition at 1 µM in experiment [2] (@ 1 μM) of 30 to 70%.
With `Nc1nnc(-c2ccccc2O)cc1N1CCCN(c2ccnc(C#CCN3CC(=O)NC(=O)C3)n2)CC1` [Compound P-364, 4-[3-(4-{4-[3-amino-6-(o-hydroxyphenyl)-4-pyridazinyl]-1,4-diazepan-1-yl}-2-pyrimidinyl)-2-propynyl]-2,6-piperazinedione], the DC50 in experiment [1] and in experiment [2] was 500 to 5000 nM each time. In addition, the “SMARCA2 % Degradation @ 1 μM” value in experiment [1] (@ 1 μM) is recorded as “++ (++=30-70%)”. Also, the inhibition at 1 µM in experiment [2] (@ 1 μM) is less than 30%.
Turning to `CSCC#Cc1nccc(N2CCCN(c3cc(-c4ccccc4O)nnc3N)CC2)n1` [Compound P-323, 0-[6-amino-5-(4-{2-[3-(methylthio)-1-propynyl]-4-pyrimidinyl}-1,4-diazepan-1-yl)-3-pyridazinyl]phenol], the DC50 in experiment [1] and in experiment [2] was 50 to 500 nM throughout. In addition, in experiment [1] (@ 1 μM), the “SMARCA2 % Degradation @ 1 μM” value is listed as “++ (++=30-70%)”. The same molecule showed an inhibition at 1 µM in experiment [2] (@ 1 μM) of 30 to 70%.
Regarding `CC1CN(c2cc(-c3ccccc3O)nnc2N)CCCN1c1ccnc(C#CCNC(=O)c2cc3ncccn3n2)n1` (stereo not shown) [Compound P-20, N-(3-(4-(4-(3-amino-6-(2-hydroxyphenyl)pyridazin-4-yl)-2-methyl-1,4-diazepan-1-yl)pyrimidin-2-yl)prop-2-yn-1-yl)pyrazolo[1,5-a]pyrimidine-2-carboxamide], the DC50 in experiment [1] and in experiment [2] was 50 to 500 nM throughout. Also, the “SMARCA2 % Degradation @ 1 μM” value in experiment [1] (@ 1 μM) is listed as “++ (++=30-70%)”. This molecule also showed an inhibition at 1 µM in experiment [2] (@ 1 μM) of 30 to 70%.
In the case of `C[C@@H]1CCN(c2cc(-c3ccccc3O)nnc2N)CCN1c1ccnc(C#CC2CN(C)C2)n1` [Compound P-192, o-{5-[(R)-5-methyl-4-{2-[2-(1-methyl-3-azetidinyl)ethynyl]-4-pyrimidinyl}-1,4-diazepan-1-y1]-6-amino-3-pyridaziny1} phenol], the results for the DC50 in experiment [1] and in experiment [2] were less than 50 nM and 50 to 500 nM, respectively. Besides, the “SMARCA2 % Degradation @ 1 μM” value in experiment [1] (@ 1 μM) is recorded as “+++ (+++=>70%)”. The inhibition at 1 µM in experiment [2] (@ 1 μM) was 30 to 70%.
Taken in the same sequence, the figures for `C[C@@H]1CCN(c2cc(-c3ccccc3O)nnc2N)CCN1c1ccnc(C#CCN2CCCCC2)n1` [Compound P-335, 0-(5-{(R)-5-methyl-4-[2-(3-piperidino-1-propynyl)-4-pyrimidinyl]-1,4-diazepan-1-y1}-6-amino-3-pyridazinyl)phenol] were less than 50 nM, less than 50 nM, “++ (++=30-70%)” and 30 to 70%.
Taken in the same sequence, the figures for `C[C@H]1CCN(c2cc(-c3ccccc3O)nnc2N)CCN1c1ccnc(C#CCNC(=O)c2cnc3ccccc3n2)n1` [Compound P-101, (S)-N-(3-(4-(4-(3-amino-6-(2-hydroxyphenyl)pyridazin-4-yl)-7-methyl-1,4-diazepan-1-yl)pyrimidin-2-y1)prop-2-yn-1-yl)quinoxaline-2-carboxamide] were less than 50 nM, less than 50 nM, “+++ (+++=>70%)” and more than 70%.
On the same counts, the results for `CC(C)(C)OC(=O)NCC#Cc1nccc(N2CCC(Oc3cc(-c4ccccc4O)nnc3N)CC2)n1` [Compound P-296, 4-(1-{2-[3-(tert-butoxycarbonylamino)-1-propynyl]-4-pyrimidinyl}-4-piperidyloxy)-6-(o-hydroxyphenyl)-3-pyridazinamine] are 50 to 500 nM, 50 to 500 nM, “++ (++=30-70%)” and 30 to 70%.
In the case of `Cn1ccc(OCC#Cc2nccc(N3CCCN(c4cc(-c5ccccc5O)nnc4N)CC3)n2)n1` [Compound P-108, 2-(6-amino-5-(4-(2-(3-((1-methyl-1H-pyrazol-3-yl)oxy)prop-1-yn-1-yl)pyrimidin-4-yl)-1,4-diazepan-1-yl)pyridazin-3-yl)phenol], the DC50 in experiment [1] and in experiment [2] was 50 to 500 nM in each case. Moreover, the “SMARCA2 % Degradation @ 1 μM” value in experiment [1] (@ 1 μM) was “+++ (+++=>70%)”. The inhibition at 1 µM in experiment [2] (@ 1 μM) was more than 70%.
For `CC(C#Cc1nc(N2CCN(c3cc(-c4ccccc4O)nnc3N)CC[C@H]2C)ccc1C#N)N(C)C` (stereo partly drawn) [Compound P-407, 6-{(R)-4-[3-amino-6-(o-hydroxyphenyl)-4-pyridazinyl]-7-methyl-1,4-diazepan-1-yl}-2-[3-(dimethylamino)-1-butynyl]nicotinonitrile], the DC50 in experiment [1] and in experiment [2] was less than 50 nM each time. The “SMARCA2 % Degradation @ 1 μM” value in experiment [1] (1 μM) is given as “++ (++=30-70%)”. Further, the inhibition at 1 µM in experiment [2] (1 μM) is less than 30%.

(Values after US20260265238A1, “COMPOUNDS AND PHARMACEUTICAL COMPOSITIONS THAT DEGRADE SWI/SNF-RELATED MATRIX-ASSOCIATED ACTIN-DEPENDENT REGULATOR OF CHROMATIN SUBFAMILY A” (Plexium, Inc., priority 2023, published 2026).)
